Here are results for two molecules from patent publication US11851391B2, “Antifungal compounds and methods of forming the same” (University of Kentucky Research Foundation, priority 2018, dated 2023).

Data set [1] relates to Candida krusei ATCC 6258 (strain I). The data set is described as follows: MIC determination, in vitro antifungal assay (CLSI M27-A3). Type of data set: cell-based. The settings on record: Pichia kudriavzevii, ATCC6258, 48 h, MIC-0, 48 h at 35° C., read-out: MIC. The method in brief: (§1)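 Inoculum 2-4×10^3 CFU/mL from overnight YPD culture (OD600 0.12 ≈ 1×10^6 CFU/mL). DMSO <1.25% final.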

Data set [2] relates to Candida glabrata ATCC 2001 (strain H). The data set is described as above. Type of data set: cell-based. Conditions: MIC-0, 48 h at 35° C. The essentials: as §1
The test system of data set [3] is various bacterial strains, including Listeria monocytogenes, methicillin-resistant Staphylococcus aureus, and vancomycin-resistant enterococci. The data set can be described thus: Antibacterial activity. Format: cell-based. From the text: The activity of N,N′-diaryl-bishydrazones 7-22 was explored against various bacterial strains, including Listeria monocytogenes, methicillin-resistant Staphylococcus aureus, and vancomycin-resistant enterococci.

In data set [4] the test system is Aspergillus flavus ATCC MYA-3631 (strain K). The data set can be described thus: MIC determination against filamentous fungi (CLSI M38-A2). Type of data set: cell-based. Conditions: Aspergillus flavus, 48 h, MIC-0, 48 h at 35° C., read-out: MIC. The essentials:
(§2)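 MIC-0, meaning no visible growth relative to growth control, was scored after 48 h at 35° C, in triplicate. Hemocytometer-counted spores from potato dextrose agar were inoculated at 5×10^5 CFU/mL final. The medium was MOPS-buffered (0.165 M) RPMI 1640 at pH 7.0, following CLSI M38-A2.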

The subject of data set [5] is Aspergillus terreus ATCC MYA-3633 (strain M). Described as above. Format: cell-based. Conditions: Aspergillus terreus, 48 h, MIC-0, 48 h at 35° C., read-out: MIC. The essentials:
as §2

The subject of data set [6] is Aspergillus nidulans ATCC 38163 (strain L). Described as above. Format: cell-based. The settings on record: Aspergillus nidulans, ATCC38163, 48 h, MIC-0, 48 h at 35° C., read-out: MIC. The method in brief: as §2
Data set [7] relates to Candida albicans ATCC 10231(R) (strain A). The data set can be described thus: MIC determination, in vitro antifungal assay (CLSI M27-A3). Format: cell-based. The settings on record: Candida albicans, ATCC10231, 48 h, MIC-0 (no visible growth), 48 h at 35° C., read-out: MIC. The method in brief: (§3)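 MICs followed broth microdilution per CLSI M27-A3 with minor modifications, in RPMI 1640 buffered to pH 7.0 with MOPS at 35° C. Inoculum was 2-4×10^3 CFU/mL from overnight YPD cultures, with DMSO kept <1.25%. MIC was the lowest concentration giving complete inhibition (MIC-0).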

Data set [8] has as its system Candida parapsilosis ATCC 22019 (strain J). The description is as above. Format: cell-based. Conditions: Lodderomyces parapsilosis, read-out: MIC. The essentials: as §3
Data set [9] deals with C. albicans ATCC 90819(R) (strain D). Described as above. Format: cell-based, Candida albicans. Conditions: Candida albicans, ATCC90819, 48 h, MIC-0, 48 h at 35° C., read-out: MIC. The essentials: as §3
In data set [10] the test system is C. albicans ATCC MYA-1237(R) (strain F). The description is as above. Format: cell-based, Candida albicans. The settings on record: Candida albicans, read-out: MIC. The essentials: as §3
Data set [11] deals with C. albicans ATCC 64124(R) (strain B). The description is as above. Format: cell-based, Candida albicans. The settings on record: Candida albicans, read-out: MIC. The method in brief:
as §3

The test system of data set [12] is C. albicans ATCC MYA-2310(S) (strain E). The data set is described as above. Type of data set: cell-based, Candida albicans. Conditions: Candida albicans, read-out: MIC. The method in brief: as §3
For data set [13], the system named is C. albicans ATCC MYA-2876(S) (strain C). The description is as above. The settings on record: Candida albicans, 48 h, MIC-0, 48 h at 35° C., read-out: MIC. Type of data set: cell-based, Candida albicans. The method in brief: as §1
Data set [14] concerns C. albicans ATCC MYA-1003(R) (strain G). The data set is described as above. Format: cell-based, Candida albicans. The settings on record: Candida albicans, 48 h, MIC-0, 48 h at 35° C., read-out: MIC. The essentials: as §1
For data set [15], the system named is various yeast strains and filamentous fungi (strains A-M). The data set is described as follows: Antifungal activity over the whole panel (summary of MIC data). Format: cell-based, Candida and Aspergillus strains. As to the method: The activity of N,N′-diaryl-bishydrazones 7-22 was tested against a panel of seven strains of C. albicans: ATCC 10231(R) (A), ATCC 64124(R) (B), ATCC MYA-2876(S) (C), ATCC 90819(R) (D), ATCC MYA-2310(S) (E), ATCC MYA-1237(R) (F), and ATCC MYA-1003(R) (G). The activity of these bishydrazones 7-22 was also explored against a panel of three non-albicans Candida strains: C. glabrata ATCC 2001 (H), C. krusei ATCC 6258 (I), and C. parapsilosis ATCC 22019 (J). Finally, the activity of these bishydrazones 7-22 was explored against three Aspergillus strains: A. flavus ATCC MYA-3631 (K), A. nidulans ATCC 38163 (L), and A. terreus ATCC MYA-3633 (M).
The MIC values of compounds 7a-24c against yeast cells (strains A-J) were determined in 96-well plates as described in the CLSI document M27-A3 with minor modifications. A single colony of freshly prepared yeast cells was used to inoculate 5 mL of yeast extract peptone dextrose (YPD) broth prior to incubation overnight with shaking at 200 rpm at 35° C. From the actively growing yeast culture, 100 μL were then transferred to 900 μL of sterile ddH2O and re-adjusted to achieve OD600 of 0.12 (˜1×10^6 CFU/mL). The cell suspension was further diluted to achieve 2-4×10^3 CFU/mL in RPMI 1640 medium. […] The final concentration of DMSO was ensured to be <1.25% in all experiments. The MIC values for compounds 7a-24c and CAS were defined as the minimum drug concentration that yielded complete inhibition (also known as MIC-0).
Similarly, the MIC values of compounds 7a-24c, as well as that of the two control drugs against filamentous fungi (strains K-M) were determined as previously described in CLSI document M38-A2. Spores were harvested from sporulating cultures growing on potato dextrose agar (PDA) by filtration through sterile glass wool and enumerated by using a hemocytometer to obtain the desired inoculum size. […] Spore suspensions were added to the wells to afford a final concentration of 5×10^5 CFU/mL. The plates were incubated at 35° C. for 48 h. The MIC values of compounds 7a-24c and CAS against filamentous fungi were based on the complete inhibition of growth when compared to the growth control (MIC-0). […] Each test was performed in triplicate.

Data set [16] relates to C. albicans ATCC 90819(R) (strain D). The data set is described as follows: MIC determination, in vitro antifungal assay (CLSI M27-A3). Conditions: Candida albicans, ATCC90819, strain D; MIC-2 (50% growth inhibition), reported for VOR. Format: cell-based.
Data set [17] deals with murine red blood cells (mRBCs). The settings on record: mouse, 60 min. As to the method: Thus, the hemolytic activity for these bishydrazones was investigated against murine red blood cells (mRBCs).
Murine red blood cells (mRBCs) were prepared by suspending 1 mL of murine blood in 3 mL of PBS prior to centrifugation at 1,000 rpm for 5 min. The mRBCs were washed four times in PBS and resuspended in the same buffer to a final concentration of 10^7 mRBC/mL. […] The tubes were incubated at 37° C. for 60 min. […] Eppendorf tubes containing 200 μL of ddH2O and 2 μL of 1% v/v Triton™ X-100 served as negative (blank) and positive controls, respectively. The percentage of hemolysis was calculated using the following equation: % hemolysis=[(absorbance of sample)−(absorbance of blank)]×100/(absorbance of positive control).

Setting [18] is: MIC-2 (50% growth inhibition), reported for VOR.

Molecules are shown by their SMILES. Values after ≈ are worked out from the molar mass of the structure shown. “Also recorded” adds a separate entry of the source. Read-outs that look alike come from different tables or passages of the source.

As to `CC(C)(C)N/N=C/c1ccc(-c2ccc(/C=N/NC(C)(C)C)cc2)cc1` [Compound 23b], the MIC in data set [1] is 31.3 µg/mL (≈ 89.3 µM); in data set [2], 15.6 µg/mL (≈ 44.5 µM); in data set [2] (Nakaseomyces glabratus, ATCC2001, 48 h, read-out: MIC), 15.6 µg/mL (≈ 44.5 µM); in data set [4], above 31.3 µg/mL; in data set [5], above 31.3 µg/mL; in data set [6] it was 31.3 µg/mL (≈ 89.3 µM). Also, the MIC was 31.3 µg/mL (≈ 89.3 µM) in data set [7]; above 31.3 µg/mL in [8] (ATCC22019, 48 h, strain J, MIC-0, 48 h at 35° C.); above 31.3 µg/mL in [9]; 31.3 µg/mL (≈ 89.3 µM) in data set [10] (48 h, MIC-0, 48 h at 35° C.); 31.3 µg/mL (≈ 89.3 µM) in data set [11] (ATCC64124, 48 h, strain B, MIC-0, 48 h at 35° C.); 31.3 µg/mL (≈ 89.3 µM) in data set [12] (48 h, MIC-0, 48 h at 35° C.). Besides, the MIC was above 31.3 µg/mL in data set [13]; above 31.3 µg/mL in [14]; at least 31.3 µg/mL in [15] (against all fungal strains tested, with named exceptions, read-out: antifungal activity class based on MIC values). The “antibacterial activity (in words)” value in data set [3] is on record as “neither the N,N′-diaryl-bishydrazones 7-22 nor the N,N′-di-tert-butyl-bishydrazone 23b displayed antibacterial activity; also recorded: Neither the N,N′-diaryl-bishydrazones 7-22 or the N,N′-dialkyl-bishydrazone 23b displayed antibacterial activity”. In addition, the “antifungal activity (in words)” value in data set [15] (over the fungal strains tested, based on MIC data of Table 1) is “inactive”.
`C[C@@H](c1ncncc1F)[C@](O)(Cn1cncn1)c1ccc(F)cc1F` [VOR, voriconazole, reference compound]: the MIC is 0.12 µg/mL (≈ 0.344 µM) in data set [16]; above 31.3 µg/mL in data set [4]; above 31.3 µg/mL in data set [5]; above 31.3 µg/mL in data set [6]; 0.975 µg/mL (≈ 2.79 µM) in data set [7]; 1.95 µg/mL (≈ 5.58 µM) in [8] (ATCC22019, strain J, MIC-2 (50% growth inhibition), reported for VOR). Further, the MIC in [10] (setting [18]) turned out to be 0.24 µg/mL (≈ 0.687 µM); in data set [11] (ATCC64124, strain B, MIC-2 (50% growth inhibition), reported for VOR) it was 0.24 µg/mL (≈ 0.687 µM); in [12] (setting [18]), 0.12 µg/mL (≈ 0.344 µM). Besides, the “Percentage of hemolysis (±SDEV)” value in [17] (0.975 μg/mL) worked out at 10.3 ± 2.1%; in [17] (1.95 μg/mL) it was 6.3 ± 1.9%; in data set [17] (3.9 μg/mL) it was 7.5 ± 0.5%; in data set [17] (7.8 μg/mL) it was 11.4 ± 10.9%; in data set [17] (15.6 μg/mL) it was 2.8 ± 1.3%.
